Source: patent US11236111B2, “Hepatitis B antiviral agents” (Enanta Pharmaceuticals, Inc., priority 2019, dated 2022)

What was measured:
HBV = assay: HepAD38 anti-HBV assay: reduction of viral product accumulation (virion DNA by qPCR, HBsAg or HBeAg by ELISA); format: cell-based; conditions: Hepatitis B virus, 120 h, HepAD38 cells, harvest five days after compound addition, 50% reduction of viral product vs no drug controls
Description: Methods: HepAD38 cells are maintained as previously reported (Ladner et al, Antimicrob. Agents Chemother. 1997, […], 1715). Briefly, cells are passaged upon attaining confluency in DMEM/F12 media in the presence of 10% FBS, Penn/Strep, 250 μg/mL G418, and 1 μg/ml tetracycline. Novel compounds are screened by first washing cells three times with PBS to remove tetracycline, and plating in 96 well plates at 35,000 cells/well. Compounds dissolved in DMSO are then diluted 1:200 into wells containing cells. Five days after compound addition, material is harvested for analysis. For an extended 8 day analysis, cells are plated and treated as described above, but media and compound are refreshed on d2 and d5 post initial treatment.
On harvest day, virion DNA is obtained by lysing with Sidestep Lysis and Stabilization Buffer and then quantified via quantitative real time PCR. Commercially available ELISA kits are used to quantitate the viral proteins HBsAg (Alpco) or HbeAg (US Biological) by following the manufacturer's recommended protocol after diluting samples to match the linear range of their respective assays. Irrespective of readout, compound concentrations that reduce viral product accumulation in the cell lysates or supernatants by 50% relative to no drug controls (EC50) are reported; EC50 ranges are as follows: A<0.1 μM; B 0.1-0.4 μM; C>0.4 μM.

[1] = Compound toxicity, total ATP levels (ATPLite); format: cell-based; conditions: human, HepG2 cells; three days after compound addition; 50% reduction of total ATP vs no drug controls
Description: Compound toxicity is evaluated by seeding cells at 15,000 cells/well and treating with compound as described above.

Row | SMILES | EC50 (HBV; class symbols) [nM] | CC50 at 3 days [1] [nM] | EC50 (HBV; given as numeric bound) [nM]
1 | C#CCN1CC2(CC3=C(c4ccn(C(F)F)n4)[C@H](c4ccc(F)cc4Cl)N=C(c4nccs4)N3C2)OC1=O (stereo partly shown) [Example 1] | > 400 | – | –
2 | C=CCN1CC2(CC3=C(c4ccn(C(F)F)n4)[C@H](c4ccc(F)cc4Cl)N=C(c4nccs4)N3C2)OC1=O (stereo partly shown) [Example 2] | > 400 | – | –
3 | O=C1OC2(CC3=C(c4ccn(C(F)F)n4)[C@H](c4ccc(F)cc4Cl)N=C(c4nccs4)N3C2)CN1Cc1ccccc1 (stereo partly shown) [Example 3] | > 400 | – | –
4 | C=CCN1C[C@@]2(CC3=C(c4ccn(C(F)F)n4)[C@H](c4ccc(F)cc4Cl)N=C(c4nccs4)N3C2)NC1=O [Example 4] | < 100 | – | –
5 | C=CCN1C[C@]2(CC3=C(c4ccn(C(F)F)n4)[C@H](c4ccc(F)cc4Cl)N=C(c4nccs4)N3C2)NC1=O [Example 5] | 100 to 400 | – | –
6 | O=C1N[C@@]2(CO1)CC1=C(c3cnn(C(F)F)n3)[C@H](c3ccc(F)cc3Cl)N=C(c3nccs3)N1C2 [Example 6] | < 100 | > 25000 | –
7 | O=C1N[C@@]2(CO1)CC1=C(c3ccn(C(F)F)n3)[C@H](c3ccc(Cl)c(F)c3)N=C(c3nccs3)N1C2 [Example 7] | < 100 | > 25000 | –
8 | O=C1N[C@@]2(CO1)CC1=C(c3ccn(C(F)F)n3)[C@@H](c3ccc(Cl)c(F)c3)N=C(c3nccs3)N1C2 [Example 8] | – | – | > 100
9 | O=C1N[C@@]2(CO1)CC1=C(c3cnn(C(F)F)c3)[C@H](c3ccc(Cl)c(F)c3)N=C(c3nccs3)N1C2 [Example 9] | < 100 | – | –
10 | O=C1N[C@@]2(CO1)CC1=C(c3cnn(C(F)F)c3)[C@@H](c3ccc(Cl)c(F)c3)N=C(c3nccs3)N1C2 [Example 10] | – | – | > 100
11 | COC(=O)C1=C2C[C@@]3(COC(=O)N3)CN2C(c2nccs2)=N[C@H]1c1ccc(Cl)c(F)c1 [Example 11] | < 100 | – | –
12 | COC(=O)C1=C2C[C@@]3(COC(=O)N3)CN2C(c2nccs2)=N[C@@H]1c1ccc(Cl)c(F)c1 [Example 12] | – | – | > 100
13 | O=C1N[C@]2(CO1)CC1=C(c3ccn(C(F)F)n3)[C@H](c3ccc(Cl)c(F)c3)N=C(c3nccs3)N1C2 [Example 13] | < 100 | > 25000 | –
14 | O=C1N[C@]2(CO1)CC1=C(c3ccn(C(F)F)n3)[C@@H](c3ccc(Cl)c(F)c3)N=C(c3nccs3)N1C2 [Example 14] | – | – | > 100
15 | O=C1N[C@@]2(CO1)CC1=C(c3ccn(C(F)F)n3)[C@H](c3ccc(F)c(F)c3)N=C(c3nccs3)N1C2 [Example 15] | < 100 | > 25000 | –
16 | O=C1N[C@@]2(CO1)CC1=C(c3ccn(C(F)F)n3)[C@@H](c3ccc(F)c(F)c3)N=C(c3nccs3)N1C2 [Example 16] | – | – | > 100
17 | O=C1N[C@@]2(CO1)CC1=C(c3ccn(C(F)F)n3)[C@H](c3ccc(Cl)c(F)c3)N=C(c3ccccn3)N1C2 [Example 17] | – | – | > 100
18 | O=C1N[C@@]2(CO1)CC1=C(c3ccn(C(F)F)n3)[C@@H](c3ccc(Cl)c(F)c3)N=C(c3ccccn3)N1C2 [Example 18] | – | – | > 100
